From ChEMBL document CHEMBL1146165, “Structure-based de novo design, synthesis, and biological evaluation of the indole-based PPARgamma ligands (I)” (Bioorg Med Chem Lett, 2006)

Target: T1, Peroxisome proliferator-activated receptor gamma (Homo sapiens, UniProt P37231)
T1 sequence (P37231 whole entry): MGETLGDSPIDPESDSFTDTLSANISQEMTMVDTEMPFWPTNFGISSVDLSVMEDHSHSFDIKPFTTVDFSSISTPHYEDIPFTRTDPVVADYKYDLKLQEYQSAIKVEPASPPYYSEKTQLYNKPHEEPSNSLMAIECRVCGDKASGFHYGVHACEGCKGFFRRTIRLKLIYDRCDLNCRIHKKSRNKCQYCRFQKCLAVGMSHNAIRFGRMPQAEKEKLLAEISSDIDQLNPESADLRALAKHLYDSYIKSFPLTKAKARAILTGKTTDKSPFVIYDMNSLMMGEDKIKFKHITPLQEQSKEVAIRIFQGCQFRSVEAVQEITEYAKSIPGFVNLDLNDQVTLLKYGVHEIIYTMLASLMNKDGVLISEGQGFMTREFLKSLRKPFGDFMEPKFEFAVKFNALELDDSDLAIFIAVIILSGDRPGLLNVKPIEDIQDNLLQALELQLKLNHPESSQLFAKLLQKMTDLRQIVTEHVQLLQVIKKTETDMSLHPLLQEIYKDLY
Assay: Binding affinity to human PPARgamma

Kd [µM]	SMILES
6.86	O=C(NC(Cc1c[nH]c2cc(OCc3ccccc3)ccc12)C(=O)O)c1ccc(Cl)cc1 (configuration not stated)
8.69	O=C(NC(Cc1c[nH]c2cc(OCc3ccccc3)ccc12)(C(=O)O)C(=O)O)c1ccc(Cl)cc1
